Experimental data published in patent US20200063169A1, “METHODS AND COMPOSITIONS FOR THE PRODUCTION OF LIPIDS” (THE UNIVERSITY OF BRITISH COLUMBIA, priority 2017, published 2020).

Experiments:
[1] = tested on: FcrA; assay: FcrA activity assays (spectrophotometric, NADPH oxidation / DTNB); type: biochemical, Rhodococcus jostii RHA1; conditions: for Specific Activity: 5 μM acyl-CoA, 200 μM NADPH, pH 7.0, 25° C.
Experimental: FcrA activity was evaluated using two spectrophotometric assays. Assays were performed at 25° C. in 1 mL 20 mM MOPS, 80 mM NaCl, pH 7.0 (I=0.1 M) containing 5 μM acyl-CoA and 200 μM NADPH. Reactions were initiated by the addition of FcrA to a final concentration of 0.5 to 2 μM. In one assay, the oxidation of NADPH was followed at 340 nm (E=6.3 mM mM^−1 cm^−1 [43]). In the second assay, the reaction mixture also contained 0.1 mg/mL DTNB, and the formation of NTB^2− was followed at 412 nm (E=14.15 mM^−1 cm^−1 for NTB^2−[44]). Reaction rates were calculated from progress curves using Cary WinUV Kinetics Application (Agilent). The pH-dependence of the reaction was evaluated using the DTNB assay and a series of 20 mM Good's buffers (MES, MOPS, HEPPS, or TAPS), 80 mM NaCl (I=0.1 M), pH 6 to 9.
Because related two-domain enzymes completely reduce acyl-CoAs to fatty alcohols and have been used in biotechnology applications, further efforts were focused on exploring the function of FcrA, To investigate the activity of FcrA, it was first produced as a C-terminally His-tagged protein in RHA1 and purified to greater than 95% apparent homogeneity (FIG. 4A). The molecular mass of FcrA-His6 was 73627 Da, which corresponds to the mass of the protein (73758 Da) less the N-terminal methionine (131 Da). Then, to evaluate the ability of FcrA to catalyze the formation of fatty alcohols, 1.4 μM FcrA was incubated with 400 μM NADPH and 100 μM oleoyl-CoA in 1 mL 20 mM Tris-HCl, pH 7.0, 50 mM NaCl for 20 h at room temperature. The reaction was quenched with 1 mL saturated NaCl and 100 μM of tetradecanol was added as a standard. […] No alcohol was detected in control reactions in which FcrA was omitted. […] As with previously characterized FARs, activity was maximal at pH 7.0. […] Among the tested substrates, FcrA had highest specific activity for stearoyl-CoA (C18-CoA), reducing it at a rate of 45±3 nmol/mg·min. The specific activity of FcrA dropped off with decreasing chain length of the acyl-CoA substrate (Table 2).

[2] = tested on: FcrA; assay: FcrA fatty alcohol formation, reaction products analysed by GC/MS; type: biochemical, Rhodococcus jostii RHA1; conditions: 1.4 μM FcrA, 400 μM NADPH, 100 μM oleoyl-CoA, pH 7.0, 20 h, room temperature
Experimental: To analyze fatty alcohols produced in vitro, quenched reactions of 2 mL were extracted with 5 mL of 2:1 chloroform:methanol (v/v). The organic phase was collected, washed once with 1:1 H2O:methanol, and three times with H2O. The organic phase was removed and dried under nitrogen stream. The extract was suspended in pyridine and derivatized with […] for 1 h at 60° C. Derivatized extracts were analyzed by gas chromatography-mass spectrometry (GC/MS) as described below.
Analyses were performed using an Agilent 6890n gas chromatograph system fitted with an HP-5 MS 30 m×0.25 mm capillary column (Hewlett-Packard) and an Agilent 5973n mass-selective detector. […] WEs were further identified by comparison to an authentic stearyl stearate standard and were quantified using a standard curve generated using palmityl myristate (Nu-Chek Prep).
Because related two-domain enzymes completely reduce acyl-CoAs to fatty alcohols and have been used in biotechnology applications, further efforts were focused on exploring the function of FcrA, To investigate the activity of FcrA, it was first produced as a C-terminally His-tagged protein in RHA1 and purified to greater than 95% apparent homogeneity (FIG. 4A). […] No alcohol was detected in control reactions in which FcrA was omitted. […]

Structure (SMILES) | Specific Activity ([1]; FcrA with acyl-CoA substrate) | further results
CCCCCCCCCCCC(=O)SCCNC(=O)CCNC(=O)[C@H](O)C(C)(C)COP(=O)(O)OP(=O)(O)OC[C@H]1O[C@@H](n2cnc3c(N)ncnc32)[C@H](O)[C@@H]1OP(=O)(O)O [Lauroyl-CoA] | 1.5 ± 0.3 nmol/min/(mg protein) | –
NC(=O)C1=CN([C@@H]2O[C@H](COP(=O)(O)OP(=O)(O)OC[C@H]3O[C@@H](n4cnc5c(N)ncnc54)[C@H](O)[C@@H]3O)[C@@H](O)[C@H]2O)C=CC1 [NADH] | – | FcrA activity with cofactor in place of NADPH ([1]; NADPH substituted with NADH): no activity was detected
CCCCCCCC/C=C\CCCCCCCC(=O)SCCNC(=O)CCNC(=O)[C@H](O)C(C)(C)COP(=O)(O)OP(=O)(O)OC[C@H]1O[C@@H](n2cnc3c(N)ncnc32)[C@H](O)[C@@H]1OP(=O)(O)O [Oleoyl-CoA] | 41 ± 1 nmol/min/(mg protein) | rate of reduction by FcrA compared with stearoyl-CoA ([1]; monounsaturated acyl-CoA substrate): reduced at a similar rate to stearoyl-CoA; conversion of acyl-CoA to fatty alcohol by FcrA [2]: converted oleoyl-CoA to oleyl alcohol
CCCCCCCCCCCCCCCC(=O)SCCNC(=O)CCNC(=O)[C@H](O)C(C)(C)COP(=O)(O)OP(=O)(O)OC[C@H]1O[C@@H](n2cnc3c(N)ncnc32)[C@H](O)[C@@H]1OP(=O)(O)O [Palmitoyl-CoA] | 7.0 ± 0.1 nmol/min/(mg protein) | –
CCCCCCCCCCCCCCCCCC(=O)SCCNC(=O)CCNC(=O)[C@H](O)C(C)(C)COP(=O)(O)OP(=O)(O)OC[C@H]1O[C@@H](n2cnc3c(N)ncnc32)[C@H](O)[C@@H]1OP(=O)(O)O [Stearoyl-CoA] | 45 ± 3 nmol/min/(mg protein) | specific activity (rate of reduction by FcrA) ([1]; FcrA with acyl-CoA substrate): 45 ± 3 nmol/mg/min
